Laboratory results published in patent US20250236639A1, “NEUROACTIVE STEROIDS AND COMPOSITIONS THEREOF” (Sage Therapeutics, Inc., priority 2019, published 2025).

biological target: GABAA receptor; test: Steroid inhibition of [35S]-TBPS binding, rat brain cortical membranes; conditions: 3 nM [35S]-TBPS, in the presence of 5 mM GABA
Experimental: [^35S]-t-Butylbicyclophosphorothionate (TBPS) binding assays using rat brain cortical membranes in the presence of 5 mM GABA has been described (Gee et al, J. Pharmacol. Exp. Ther. 1987, 241, 346-353; Hawkinson et al, Mol. Pharmacol. 1994, 46, 977-985; Lewin, A. H et al., Mol. Pharmacol. 1989, 35, 189-194).
Briefly, cortices are rapidly removed following decapitation of carbon dioxide-anesthetized Sprague-Dawley rats (200-250 g). The cortices are homogenized in 10 volumes of ice-cold 0.32 M sucrose using a glass/teflon homogenizer and centrifuged at 1500×g for 10 min at 4° C. The resultant supernatants are centrifuged at 10,000×g for 20 min at 4° C. to obtain the P2 pellets. The P2 pellets are resuspended in 200 mM NaCl/50 mM Na—K phosphate pH 7.4 buffer and centrifuged at 10,000×g for 10 min at 4° C. This washing procedure is repeated twice and the pellets are resuspended in 10 volumes of buffer. Aliquots ([…]) of the membrane suspensions are incubated with 3 nM [^35S]-TBPS and […] aliquots of test drug dissolved in dimethyl sulfoxide (DMSO) (final 0.5%) in the presence of 5 mM GABA. The incubation is brought to a final volume of 1.0 mL with buffer. Nonspecific binding is determined in the presence of […] and ranged from 15 to 25%. Following a 90 min incubation at room temp, the assays are terminated by filtration through glass fiber filters (Schleicher and Schuell No. 32) using a cell harvester (Brandel) and rinsed three times with ice-cold buffer. Filter bound radioactivity is measured by liquid scintillation spectrometry. Non-linear curve fitting of the overall data for each drug averaged for each concentration is done using Prism (GraphPad). […] The concentration of test compound producing 50% inhibition (IC50) of specific binding and the maximal extent of inhibition (Imax) are determined for the individual experiments with the same model used for the overall data and then the means±SEM.s of the individual experiments are calculated.
Various compounds are or can be screened to determine their potential as modulators of [^35S]-TBPS binding in vitro. These assays are or can be performed in accordance with the above

Compound | IC50
CCC[C@@]1(O)CC[C@H]2[C@H](CC[C@@H]3[C@@H]2CC[C@@]2(C)[C@H]3CC[C@@H]2[C@](C)(Cn2cc(C#N)cn2)OC)C1 [Compound 37, 1-((R)-2-((3R,5R,8R,9R,10S,13S,14S,17S)-3-hydroxy-13-methyl-3-propylhexadecahydro-1H-cyclopenta[a]phenanthren-17-yl)-2-methoxypropyl)-1H-pyrazole-4-carbonitrile] | 100 to 1000 nM
COC[C@@]1(O)CC[C@H]2[C@H](CC[C@@H]3[C@@H]2CC[C@]2(C)[C@@H](C(F)(F)Cn4cc(C#N)cn4)CC[C@@H]32)C1 [Compound 38, 1-(2,2-difluoro-2-((3R,5R,8R,9R,10S,13S,14S,17S)-3-hydroxy-3-(methoxymethyl)-13-methylhexadecahydro-1H-cyclopenta[a]phenanthren-17-yl)ethyl)-1H-pyrazole-4-carbonitrile] | < 100 nM
C[C@@]1(O)CC[C@H]2[C@H](CC[C@@H]3[C@@H]2CC[C@]2(C)[C@@H](C4(Cn5cc(C#N)cn5)CC4)CC[C@@H]32)C1 [Compound 39, 1-((1-((3R,5R,8R,9R,10S,13S,14S,17S)-3-hydroxy-3,13-dimethylhexadecahydro-1H-cyclopenta[a]phenanthren-17-yl)cyclopropyl)methyl)-1H-pyrazole-4-carbonitrile] | < 100 nM
COC[C@@]1(O)CC[C@H]2[C@H](CC[C@@H]3[C@@H]2CC[C@]2(C)[C@@H](C4(Cn5cc(C#N)cn5)COC4)CC[C@@H]32)C1 [Compound 40, 1-((3-((3R,5R,8R,9R,10S,13S,14S,17S)-3-hydroxy-3-(methoxymethyl)-13-methylhexadecahydro-1H-cyclopenta[a]phenanthren-17-yl)oxetan-3-yl)methyl)-1H-pyrazole-4-carbonitrile] | < 100 nM
CC(C)(Cn1cc(C#N)cn1)[C@H]1CC[C@H]2[C@@H]3CC[C@@H]4C[C@](C)(O)CC[C@@H]4[C@H]3CC[C@]12C [Compound 41, 1-(2-((3R,5R,8R,9R,10S,13S,14S,17S)-3-hydroxy-3,13-dimethylhexadecahydro-1H-cyclopenta[a]phenanthren-17-yl)-2-methylpropyl)-1H-pyrazole-4-carbonitrile] | < 100 nM
CC[C@]12CC[C@](O)(COC)C[C@H]1CC[C@H]1[C@@H]3CC[C@H]([C@](C)(O)Cn4cc(C#N)cn4)[C@@]3(C)CC[C@@H]12 [Compound 42, 1-((S)-2-((3R,5R,8S,9S,10S,13S,14S,17S)-10-ethyl-3-hydroxy-3-(methoxymethyl)-13-methylhexadecahydro-1H-cyclopenta[a]phenanthren-17-yl)-2-hydroxypropyl)-1H-pyrazole-4-carbonitrile] | < 100 nM
CC[C@]12CC[C@](O)(COC)C[C@H]1CC[C@H]1[C@@H]3CC[C@H]([C@@](C)(O)Cn4cc(C#N)cn4)[C@@]3(C)CC[C@@H]12 [Compound 43, 1-((R)-2-((3R,5R,8S,9S,10S,13S,14S,17S)-10-ethyl-3-hydroxy-3-(methoxymethyl)-13-methylhexadecahydro-1H-cyclopenta[a]phenanthren-17-yl)-2-hydroxypropyl)-1H-pyrazole-4-carbonitrile] | < 100 nM
CCC[C@@]1(O)CC[C@@]2(CC)[C@H](CC[C@H]3[C@@H]4CC[C@H]([C@](C)(O)Cn5cc(C#N)cn5)[C@@]4(C)CC[C@@H]32)C1 [Compound 44, 1-((S)-2-((3R,5R,8S,9S,10S,13S,14S,17S)-10-ethyl-3-hydroxy-13-methyl-3-propylhexadecahydro-1H-cyclopenta[a]phenanthren-17-yl)-2-hydroxypropyl)-1H-pyrazole-4-carbonitrile] | < 100 nM
